Structures are written as SMILES.

For this assay, the target named is human transferrin (Tf; hTf) (Homo sapiens, UniProt P02787). The assay can be described thus: isothermal titration calorimetry. The format is binding.
Sequence of human transferrin (Tf; hTf) (P02787 20-698): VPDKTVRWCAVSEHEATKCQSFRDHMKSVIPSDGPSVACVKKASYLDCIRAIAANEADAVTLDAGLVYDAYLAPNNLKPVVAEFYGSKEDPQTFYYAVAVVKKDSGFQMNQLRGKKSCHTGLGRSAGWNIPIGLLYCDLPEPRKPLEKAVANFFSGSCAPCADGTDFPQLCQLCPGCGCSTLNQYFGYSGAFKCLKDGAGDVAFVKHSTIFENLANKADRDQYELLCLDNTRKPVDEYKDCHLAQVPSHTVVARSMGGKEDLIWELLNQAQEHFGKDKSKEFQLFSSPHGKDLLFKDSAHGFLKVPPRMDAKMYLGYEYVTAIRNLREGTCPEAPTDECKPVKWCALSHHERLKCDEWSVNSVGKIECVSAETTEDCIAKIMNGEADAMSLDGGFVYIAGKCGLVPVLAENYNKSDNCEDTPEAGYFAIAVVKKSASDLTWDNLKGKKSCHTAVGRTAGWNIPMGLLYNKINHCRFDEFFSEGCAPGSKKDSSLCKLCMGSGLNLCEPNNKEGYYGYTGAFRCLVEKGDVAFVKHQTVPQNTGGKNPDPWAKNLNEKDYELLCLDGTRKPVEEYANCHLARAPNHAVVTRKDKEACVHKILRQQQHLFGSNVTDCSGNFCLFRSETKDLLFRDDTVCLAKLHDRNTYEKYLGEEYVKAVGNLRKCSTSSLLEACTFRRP

As a reminder, the Kd is the equilibrium constant for the complex coming apart. Compound `C/C=C1\[C@H]2C=C(C)C[C@]1(N)c1ccc(=O)[nH]c1C2` [Huperzine A] showed a Kd of 1450 nM.
